{
  "source": "patent US20050037926A1",
  "about": "“Pesticide preparations containing copolymers” (priority 2001, published 2005)",
  "format_in_all_cases": "in vivo",
  "details_in_all_cases": "600 g copolymer where named, 300 l/ha, 21 days at 20° C.",
  "key": {"Galium aparine (GALAP)": {"tested_on": "Galium aparine (GALAP)", "assay": "Greenhouse herbicidal action of glyphosate test formulations", "procedure": "(§1) Test formulations were prepared with in each case 200 g, 300 g and 500 g of glyphosate and in each case 600 g of the copolymers I to V in 300 l of water. The data by weight refer to 100% active ingredient and 100% adjuvant. An amount of the formulation corresponding to the ratio 300 l/ha was applied in a greenhouse to the plant species Abutilon theophrasti (ABUTH), Sesbania exaltata (SEBEX), Pharbitis purpurea (PHBPU), Galium aparine (GALAP), Amaranthus retroflexus (AMARE) and Echinochloa crus-galli (ECHCG), and, after 21 days at 20° C., the plant growth was assessed according to a % scale.\n(§2) 0% means no effect and 100% means complete destruction of the types of plant."}, "[1]": {"tested_on": "Pharbitis purpurea (PHBPU)", "assay": "Greenhouse herbicidal action of glyphosate test formulations", "procedure": "as §1, §2"}, "[2]": {"tested_on": "Abutilon theophrasti (ABUTH)", "assay": "Greenhouse herbicidal action of glyphosate test formulations", "procedure": "as §1, §2"}, "[3]": {"tested_on": "Amaranthus retroflexus (AMARE)", "assay": "Greenhouse herbicidal action of glyphosate test formulations", "procedure": "as §1, §2"}, "[4]": {"tested_on": "Echinochloa crus-galli (ECHCG)", "assay": "Greenhouse herbicidal action of glyphosate test formulations", "procedure": "as §1, §2"}, "[5]": {"tested_on": "Sesbania exaltata (SEBEX)", "assay": "Greenhouse herbicidal action of glyphosate test formulations", "procedure": "as §1, §2"}, "[6]": {"tested_on": "SEBEX, AMARE, GALAP, ABUTH, ECHCG, PHBPU", "assay": "Greenhouse herbicidal action, total over the six plant species", "procedure": "as §1, §2"}},
  "data": [
    {"smiles": "O=C(O)CNCP(=O)(O)O", "note": "[Glyphosate, N-phosphonomethylglycine]", "values": [
      {"measurement": "herbicidal action GALAP (plant growth assessed on % scale)", "setting": "Galium aparine (GALAP); glyphosate 200 g/ha", "value": 5, "unit": "%"},
      {"measurement": "herbicidal action GALAP (plant growth assessed on % scale)", "setting": "Galium aparine (GALAP); glyphosate 300 g/ha", "value": 20, "unit": "%"},
      {"measurement": "herbicidal action GALAP (plant growth assessed on % scale)", "setting": "Galium aparine (GALAP); glyphosate 500 g/ha", "value": 40, "unit": "%"},
      {"measurement": "herbicidal action PHBPU (plant growth assessed on % scale)", "setting": "[1]; glyphosate 200 g/ha", "value": 10, "unit": "%"},
      {"measurement": "herbicidal action PHBPU (plant growth assessed on % scale)", "setting": "[1]; glyphosate 300 g/ha", "value": 20, "unit": "%"},
      {"measurement": "herbicidal action PHBPU (plant growth assessed on % scale)", "setting": "[1]; glyphosate 500 g/ha", "value": 40, "unit": "%"},
      {"measurement": "herbicidal action ABUTH (plant growth assessed on % scale)", "setting": "[2]; glyphosate 200 g/ha", "value": 0, "unit": "%"},
      {"measurement": "herbicidal action ABUTH (plant growth assessed on % scale)", "setting": "[2]; glyphosate 300 g/ha", "value": 10, "unit": "%"},
      {"measurement": "herbicidal action ABUTH (plant growth assessed on % scale)", "setting": "[2]; glyphosate 500 g/ha", "value": 15, "unit": "%"},
      {"measurement": "herbicidal action AMARE (plant growth assessed on % scale)", "setting": "[3]; glyphosate 200 g/ha", "value": 20, "unit": "%"},
      {"measurement": "herbicidal action AMARE (plant growth assessed on % scale)", "setting": "[3]; glyphosate 300 g/ha", "value": 45, "unit": "%"},
      {"measurement": "herbicidal action AMARE (plant growth assessed on % scale)", "setting": "[3]; glyphosate 500 g/ha", "value": 65, "unit": "%"},
      {"measurement": "herbicidal action ECHCG (plant growth assessed on % scale)", "setting": "[4]; glyphosate 200 g/ha", "value": 15, "unit": "%"},
      {"measurement": "herbicidal action ECHCG (plant growth assessed on % scale)", "setting": "[4]; glyphosate 300 g/ha", "value": 20, "unit": "%"},
      {"measurement": "herbicidal action ECHCG (plant growth assessed on % scale)", "setting": "[4]; glyphosate 500 g/ha", "value": 40, "unit": "%"},
      {"measurement": "herbicidal action SEBEX (plant growth assessed on % scale)", "setting": "[5]; glyphosate 200 g/ha, 0% no effect, 100% complete destruction", "value": 10, "unit": "%"},
      {"measurement": "herbicidal action SEBEX (plant growth assessed on % scale)", "setting": "[5]; glyphosate 300 g/ha", "value": 15, "unit": "%"},
      {"measurement": "herbicidal action SEBEX (plant growth assessed on % scale)", "setting": "[5]; glyphosate 500 g/ha", "value": 30, "unit": "%"},
      {"measurement": "herbicidal action Total", "setting": "[6]; glyphosate 200 g/ha", "value": 10, "unit": "%"},
      {"measurement": "herbicidal action Total", "setting": "[6]; glyphosate 300 g/ha", "value": 22, "unit": "%"},
      {"measurement": "herbicidal action Total", "setting": "[6]; glyphosate 500 g/ha", "value": 38, "unit": "%"}
    ]}
  ]
}
